SMILES strings stand for the structures. A value given as a limit tells only on which side of the number the result lay.

This is an account of results in ChEMBL document CHEMBL3988442, “University of Dundee, Small-Polar-MMV Screening Library” (2021).

The nature of assay [1]: microbe, parasite or virus in culture. The conditions noted are these: Mycobacterium tuberculosis, 72 h, read-out: pIC50 (converted).
The nature of assay [2]: microbe, parasite or virus in culture. The conditions noted are these: Mycobacterium tuberculosis, 96 h, read-out: pIC50 (converted).

Take `CN(C)S(=O)(=O)NCCNc1ccc2ccccc2n1`: the IC50 in assay [1] was 419 µM; in assay [2] it was 326 µM.
`CC(C)CC(C(=O)N(C)Cc1ncnn1C)N1CCCCC1=O` (centres undefined): the IC50 in assay [1] and in assay [2] was over 50.1 µM each time.
Turning to `CCCc1cc(C(=O)N2CCCN(C)CC2)cs1`, the IC50 in assay [1] and in assay [2] was over 501 µM in each case.
On to `NC(=O)CSc1nc(-c2ccc(Br)cc2)c[nH]1`, for which the IC50 in assay [1] was 160 µM; in assay [2], 260 µM.
Turning to `CN(C)c1ncnc2c1CCN(C(=O)CN1CCCCC1)C2`, the IC50 in assay [1] and in assay [2] was over 50.1 µM throughout.
With `O=C(CC1C=CCC1)N1CCN(Cc2ccco2)CC1` (centres undefined), the IC50 is 184 µM in assay [1] and 228 µM in assay [2].
Turning to `c1snnc1CNCC1COC2(CCCCC2)O1` (centres undefined), the IC50 was over 501 µM in assay [1] and 268 µM in assay [2].
Consider `O=C(NCc1ccc(CO)cc1)C1CCOc2ccccc2C1` (centres undefined), for which the IC50 in assay [1] was over 50.1 µM; in assay [2], 12.2 µM.
As for `Cc1ccc(-c2cc(CS(=O)(=O)NC3CCCNC3=O)on2)cc1` (centres undefined), the IC50 in assay [1] and in assay [2] was over 50.1 µM throughout.
Turning to `O=C(NCCSCc1cccc(Cl)c1)C1CNCCO1` (centres undefined), the IC50 is 266 µM in assay [1] and 259 µM in assay [2].
In the case of `CSc1ccc(CC(=O)N(C)Cc2ccon2)cc1`, the IC50 in assay [1] and in assay [2] was over 501 µM throughout.
`O=C(Cc1ccc(-n2cccn2)cc1)N1CCCC(n2cccn2)C1` (centres undefined): the IC50 in assay [1] and in assay [2] was over 50.1 µM throughout.
Consider `OC(CN1CCn2ccnc2C1)c1ccc(F)cc1` (centres undefined), for which the IC50 is 173 µM in assay [1] and over 501 µM in assay [2].
For `CN(C)S(=O)(=O)c1cccc(CN2CCCC2)c1`, in that order: over 501 µM and over 501 µM.
Turning to `Brc1cncc(NCc2ncc[nH]2)c1`, the IC50 in assay [1] was 475 µM; in assay [2] it was over 501 µM.
Taken in the same sequence, the figures for `CSc1nnc(CN(C)CCO)s1` were over 501 µM and 56.6 µM.
For `O=S(=O)(CCNc1cncc(Cl)n1)N1CCSCC1`, in that order: 252 µM and 215 µM.
With `O=C(CCN1CCCC1CO)NCc1ccccc1Cl` (centres undefined), the results for the IC50 in assay [1] and in assay [2] were 460 µM and over 501 µM, respectively.
Regarding `CN(C)C(=O)c1csc2c1CCCC2`, the IC50 in assay [1] is 271 µM; in assay [2], 186 µM.
Take `CCC(C)(C)NC(=O)c1nn(-c2ccccc2)nc1C`: the values for the IC50 in assay [1] and in assay [2] were 199 µM and 298 µM, respectively.
Taken in the same sequence, the figures for `NCCCc1cccc(F)c1` were 74 µM and over 501 µM.
As for `CSCc1ccc(C(=O)N2CC(CC(N)=O)C2)cc1`, the IC50 in assay [1] and in assay [2] was over 501 µM throughout.
As to `CC(N)c1nc(-c2ccc3c(c2)OCO3)c[nH]1` (centres undefined), the IC50 in assay [1] and in assay [2] was over 501 µM each time.
As to `O=C(NCCn1cccc1)c1[nH]nc2c1CCCC2`, the IC50 is 248 µM in assay [1] and over 501 µM in assay [2].
For the compound `c1csc(CCNc2nc(-c3ccncc3)nc3c2CCNCC3)c1`, the IC50 was 46.2 µM in assay [1] and 21.7 µM in assay [2].
`CN(C)CC(=O)N1CCC2(CCc3cc(-c4cccnc4)ccc32)CC1`: the IC50 in assay [1] and in assay [2] was over 50.1 µM throughout.
As to `CC(C)c1nccn1C1CCCN(C(=O)c2ccc3[nH]nnc3c2)C1` (centres undefined), the IC50 in assay [1] and in assay [2] was over 50.1 µM in each case.
Consider `CCCC(C#N)NC(=O)c1ccn(-c2ccccc2)n1` (centres undefined), for which the IC50 in assay [1] is 294 µM; in assay [2], over 501 µM.
Turning to `CN1CCN(c2ccnc(SCC(N)=O)n2)CC1`, the IC50 in assay [1] is 289 µM; in assay [2], over 501 µM.
Taken in the same sequence, the figures for `NC(=O)c1cc(C2CCCN(C(=O)CCc3ccncc3)C2)n[nH]1` (centres undefined) were over 50.1 µM and over 50.1 µM.
`O=C(CCSc1ccc(F)cc1)N1CCN(c2cnccn2)CC1`: the IC50 in assay [1] and in assay [2] was over 50.1 µM throughout.
In the case of `CC(C)c1cc(N)[nH]n1`, the IC50 in assay [1] and in assay [2] was over 501 µM throughout.
As for `CC(C)c1cc(C(=O)N2CCN(Cc3ccsc3)CC2)n[nH]1`, the IC50 in assay [1] was 28.4 µM; in assay [2], 39.7 µM.
With `COc1ccc2c(c1)OCC(CNC(=O)CN(C)C)C2` (centres undefined), the IC50 in assay [1] and in assay [2] was over 501 µM each time.
For the compound `C=C(C)CCOC(=O)c1cc(C(N)=O)cs1`, the IC50 was 39.4 µM in assay [1] and 157 µM in assay [2].
Consider `COc1ccc(C(=O)NCCCC2(C3OCCO3)CCOCC2)cc1`, for which the IC50 in assay [1] and in assay [2] was over 50.1 µM throughout.
On to `Cc1ccc(S(=O)(=O)N2CCOc3ccncc32)cc1`, for which the IC50 in assay [1] is 99.3 µM; in assay [2], 457 µM.
Turning to `Nc1nccnc1C(=O)NCc1ccccc1`, the IC50 is 294 µM in assay [1] and over 501 µM in assay [2].
On to `COCCN1CCCC(Nc2ccc(Cl)cn2)C1` (centres undefined), for which the IC50 in assay [1] was 145 µM; in assay [2] it was 172 µM.
For the compound `COc1ccc([C@H]2C[C@H](N)C2)cc1F`, the IC50 is 95 µM in assay [1] and 60.7 µM in assay [2].
As to `CC1CCN(C(=O)C(C)Oc2ccc3c(c2)OCO3)CC1` (centres undefined), the IC50 was 30.1 µM in assay [1] and 38.9 µM in assay [2].
On to `NS(=O)(=O)c1ccc(F)c(C(=O)Nc2ccccc2)c1`, for which the IC50 in assay [1] was 262 µM; in assay [2] it was over 501 µM.
For `CCCN(CCC)S(=O)(=O)N1CCC2(CC1)OCCO2`, the IC50 in assay [1] is 149 µM; in assay [2], over 501 µM.
On to `CC(C)CCNC(=O)Nc1ccc(S(C)(=O)=O)cc1`, for which the IC50 in assay [1] was 162 µM; in assay [2] it was 127 µM.
For `O=C(CN1CCNCC1)c1ccco1`, in that order: 239 µM and 186 µM.
In the case of `NCCS(=O)(=O)N1CCc2ccccc21`, the IC50 in assay [1] was 149 µM; in assay [2] it was 240 µM.
For `CCOc1ccc(-c2cc(N)[nH]n2)cc1`, the figures for the IC50 in assay [1] and in assay [2] were 232 µM and over 501 µM, respectively.
Regarding `CCc1nc(C#N)c(NCc2ccc3c(c2)OCO3)o1`, the IC50 was 105 µM in assay [1] and 205 µM in assay [2].
Taken in the same sequence, the figures for `COc1ccc(CN(C)C(=O)C2CC2)cc1F` were 211 µM and 255 µM.
`CCNC(=O)c1cc(-c2ccc(F)cc2)n[nH]1`: the results for the IC50 in assay [1] and in assay [2] were 209 µM and over 501 µM, respectively.
For `CC(C)NC(=O)Nc1cccc(S(=O)(=O)C(F)F)c1`, in that order: 264 µM and 219 µM.
On to `CCC(CO)Nc1nccc(C(F)(F)F)n1` (centres undefined), for which the IC50 in assay [1] and in assay [2] was over 501 µM in each case.
Take `NCC(CO)Cc1ccc(F)c(Br)c1` (centres undefined): the IC50 in assay [1] is 375 µM; in assay [2] it was 249 µM.
As for `CCC(C)C(=O)NCCNc1ccc(C(F)(F)F)cn1` (centres undefined), the IC50 in assay [1] is 51.5 µM; in assay [2], 57.7 µM.
For `Cc1ccc(N2CCN(C)c3ncccc3C2)nn1`, in that order: over 50.1 µM and over 50.1 µM.
As to `CC(CNC(=O)N[C@@H](C)C(=O)N(C)C)Cc1cccs1` (some centres undefined), the IC50 in assay [1] is 247 µM; in assay [2] it was 277 µM.
For `O=C1CCC2(CCN(Cc3cscn3)CC2)CN1CCCO`, in that order: over 50.1 µM and over 50.1 µM.
For `NCC1CN(c2nc3cc(Cl)ccc3o2)CCO1` (centres undefined), in that order: 75.2 µM and 271 µM.
As to `CN(Cc1ccc(Br)s1)CC(O)COCCO` (centres undefined), the IC50 in assay [1] was 236 µM; in assay [2] it was 165 µM.
As for `CC(C)(C#N)C(=O)NCCNc1cccc(Br)c1`, the IC50 in assay [1] was 267 µM; in assay [2], 206 µM.
For `CN1CCOC(CNCCOc2cccc(C#N)c2)C1` (centres undefined), the IC50 in assay [1] and in assay [2] was over 50.1 µM each time.
For `CC(C)NC(=O)c1ccc(N2CCCCC2=O)cc1`, the IC50 in assay [1] and in assay [2] was over 501 µM in each case.
Regarding `Cc1cc(Cl)ccc1NC(=O)CN1CCN(C)CC1`, the IC50 in assay [1] and in assay [2] was over 501 µM in each case.
`CC(C)CCn1ccc(NC(=O)C2(O)CCC2)n1`: the IC50 in assay [1] is 308 µM; in assay [2], 331 µM.
`NC(=O)NC(=O)CCN1CCCN(c2nccs2)CC1`: the IC50 in assay [1] is 35.5 µM; in assay [2], 25.1 µM.
Take `CC(C)Cc1cc(C(=O)NCC(O)C(F)(F)F)[nH]n1` (centres undefined): the values for the IC50 in assay [1] and in assay [2] were 183 µM and 160 µM, respectively.
Regarding `CNc1nc(C)cc(NCc2cc(C)cc3c(C)c(C)[nH]c23)n1`, the IC50 in assay [1] was 28 µM; in assay [2], 44.8 µM.
For the compound `CCCc1cc(CN(C)C(=O)c2cccs2)n[nH]1`, the IC50 in assay [1] is 293 µM; in assay [2], 437 µM.
Regarding `O=C(Cn1ccc2ccccc21)N1CCCC1`, the IC50 was 60 µM in assay [1] and 162 µM in assay [2].
Turning to `CCc1cc(C)c(C(=O)Nc2ccc(C(N)=O)nc2)o1`, the IC50 in assay [1] was 56.5 µM; in assay [2], 69.6 µM.
As to `CN(C)S(=O)(=O)c1ccc(CN2CCC(C(N)=O)CC2)o1`, the IC50 in assay [1] and in assay [2] was over 50.1 µM throughout.
For the compound `Cc1cnc(NC(C)Cc2cccnc2)nc1N(C)C` (centres undefined), the IC50 in assay [1] and in assay [2] was over 50.1 µM each time.
For `O=C1OCCC1Sc1nnc(Nc2ccccc2)s1` (centres undefined), the IC50 in assay [1] was 455 µM; in assay [2], over 501 µM.
For the compound `CC(C)CSCCSc1nnc(N)[nH]1`, the IC50 in assay [1] is 240 µM; in assay [2], over 501 µM.
In the case of `NC(=O)C(Sc1nnc[nH]1)c1ccc(Br)cc1` (centres undefined), the IC50 in assay [1] and in assay [2] was over 501 µM each time.
For `COCCN(Cc1cccs1)C(=O)CC1CCNC1` (centres undefined), the IC50 was 159 µM in assay [1] and 329 µM in assay [2].
Regarding `CN(Cc1cccc(OC(F)(F)F)c1)C(=O)c1cnsn1`, the IC50 is 24.3 µM in assay [1] and 33.3 µM in assay [2].
For `COCCN1CCC(CNCc2c[nH]nc2C(C)(C)C)CC1`, in that order: 39.9 µM and over 50.1 µM.
Turning to `CC(C)N(C)S(=O)(=O)NCCCN(C)c1ccccc1`, the IC50 in assay [1] was 193 µM; in assay [2] it was 216 µM.
`CN(CC1(C)COC1)C(=O)c1cc(-c2cnn(C)c2)nc2ccccc12`: the IC50 in assay [1] and in assay [2] was over 50.1 µM in each case.
`CN(c1ccc(F)cc1)S(=O)(=O)N1CCCCC1`: the IC50 in assay [1] was 204 µM; in assay [2], 267 µM.
In the case of `CCOC(=O)C1CCCN(C(=O)c2onc(C)c2Cl)C1` (centres undefined), the IC50 is 232 µM in assay [1] and 303 µM in assay [2].
